Target: T1, 5α-reductase (Homo sapiens, UniProt P18405)
T1 construct: host or cells: Hs68 human genital skin fibroblasts
T1 sequence (P18405 1-259): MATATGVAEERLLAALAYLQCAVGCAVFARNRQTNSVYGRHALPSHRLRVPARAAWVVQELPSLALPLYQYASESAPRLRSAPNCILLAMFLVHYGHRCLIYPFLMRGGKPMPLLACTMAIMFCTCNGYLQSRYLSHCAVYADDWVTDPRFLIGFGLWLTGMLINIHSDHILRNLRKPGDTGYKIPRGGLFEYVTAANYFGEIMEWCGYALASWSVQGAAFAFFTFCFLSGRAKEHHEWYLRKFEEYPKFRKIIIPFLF
Assay: 5α-Reductase activity in Hs68 human genital skin fibroblasts (conversion of labeled testosterone, TLC analysis)
Assay type: cell-based
Conditions: Hs68
Description: Cell Culture: 5α-Reductase activity was measured using Hs68 human genital skin fibroblasts which were originally purchased from the American Type Culture Collection (Rockville, MD). The cells were grown in Dulbecco's Modified Eagle's Medium (DMEM) plus 10% stripped fetal bovine serum which was supplemented with amphotericin B ([…]) and gentamicin ([…]) (GIBCO, Grand Island, NY). The serum was stripped of endogenous steroids by incubation with dextran-coated charcoal prior to its addition to the media. The cells were maintained at 37°C in an atmosphere of 95% air, 5% CO2 and were passaged every 7-10 days by exposure to a trypsin-EDTA solution (0.025% trypsin, 0.265 mM EDTA). Prior to the assay the Hs68 cells were harvested and plated in Falcon 6-well plates (Becton Dickinson Labware, Lincoln Park, NJ) at a density of 6 x 10^4 cells per well. The cells were allowed to grow for 4-5 days or until they reached approximately 80% confluence.
Assay Method I: The substrate was prepared by dissolving unlabeled testosterone (Sigma Chemical Co., St. Louis, MO) in absolute ethanol followed by the addition of [7-^3H (N)]-testosterone (23.3 Ci/mmole, New England Nuclear, Boston, MA). The steroid solution was taken to dryness under a stream of nitrogen and then reconstituted in media.
Assay Method II: The substrate used for this method was [^14C]-testosterone (50 mCi/mmol) (New England Nuclear, Boston, MA). An aliquot of the substrate was taken to dryness under a stream of nitrogen. After the addition of 30 µl of ethanol, the testosterone was dissolved in an appropriate volume of media.
Sample Preparation: The test compounds were brought up in absolute ethanol in order to achieve the desired concentration. Subsequent dilutions of the test compounds with media were performed by the Biomek 1000 Automated Laboratory Workstation (Beckman Instruments, Palo Alto, CA). The existing media in the sample wells was aspirated and replaced with fresh media. Test compound was then added to the wells followed by the addition of 0.5 ml of substrate. The volume of the incubation mixture was maintained at 2.0 ml. The final substrate concentration was 12 µM. The concentration of the test compounds ranged from 0.001-150 µM. An additional three wells (background) containing media and substrate but no cells were also included to account for the non-enzymatic metabolism of the substrate. The plates were returned to the incubator and incubated for four hours.
At the end of the incubation the media was collected and transferred to an extraction tube containing 5 ml of toluene-ethanol (9:1), to which has been added 20-250 µg each of unlabeled carrier steroids (estriol, estradiol, estrone, 5α-androstan-3α,17β-diol, 5α-androstan-3β,17β-diol, 4-androstene-3,17-dione, 5α-androstan-3,17-dione, testosterone, and 5α-dihydrotestosterone) (Steraloids, Inc., Wilton, NH). In the case of Assay Method I the extraction tube also contained 1,000 and 10,000 dpm of [4-^14C]-dihydrotestosterone (50-60 mCi/mmol) and [4-^14C]-testosterone (50 mCi/mmol) (New England Nuclear, Boston, MA), respectively. The [^14C]-steroids were included as recovery standards to quantify procedural losses. A small amount of NaCl was also added to the extraction tubes to prevent foaming. The samples were vortexed for approximately 30 seconds and then centrifuged for 10 minutes at 500 x g. The organic phase was collected and the samples taken to dryness, redissolved in dichloromethane-methanol (9:1) and were analyzed by thin layer chromatography using one of the methods described below.
Chromatography Method I (two-dimensional): The extracted samples were appled to silica gel 60F254, 0.25 mm thick, thin layer chromatography plates (EM Science, Cincinnati, OH). The plates were developed in the first dimension with a solvent system containing dichloromethane-ethyl acetate-methanol-acetic acid (160:38:1.5:0.5, Mallinckrodt Inc., Paris, KY).

| SMILES | inhibition at 1 µM [%] |
| --- | --- |
| CN1C(=O)CC[C@@H]2c3ccc(Cl)cc3CC[C@H]21 (racemic) [Example 6, trans-dl-8-chloro-4-methyl-1,2,3,4,4a,5,6,10b-octahydrobenzo[f]quinolin-3-one] | 100 |

Same assay, conditions: Hs68, test compound 0.316 µM; Hs68 cells; substrate testosterone 12 µM; incubated four hours; read-out: % Inhibition

| SMILES | inhibition at 0.316 µM [%] |
| --- | --- |
| CN1C(=O)CC[C@@H]2c3ccc(I)cc3CC[C@H]21 (racemic) [Example 3, trans-dl-8-iodo-4-methyl-1,2,3,4,4a,5,6,10b-octahydrobenzo[f]-quinolin-3-one] | 100 |
| O=C1CC[C@@H]2c3cc(Cl)c(Cl)cc3CC[C@H]2N1 (racemic) [Example 4, trans-dl-8,9-dichloro-1,2,3,4,4a,5,6,10b-octahydrobenzo[f]quinolin-3-one] | 82.1 |
| CCOC(=O)C=Cc1ccc2c(c1)CCC1C2CCC(=O)N1C (racemic) [Example 16, trans-dl-8-ethoxycarbonylethenediyl-4-methyl-1,2,3,4,4a,5,6,10b-octahydrobenzo[f]quinolin-3-one] | 80 |
| CCOC(=O)CCc1ccc2c(c1)CCC1C2CCC(=O)N1C (racemic) [Example 22, trans-dl-8-ethoxycarbonylethanediyl-4-methyl-1,2,3,4,4a,5,6,10b-octahydrobenzo[f]quinolin-3-one] | 40.7 |
| COC(=O)C=Cc1ccc2c(c1)CCC1C2CCC(=O)N1C (racemic) [Example 23, trans-dl-8-methoxycarbonylethenediyl-4-methyl-1,2,3,4,4a,5,6,10b-octahydrobenzo[f]quinolin-3-one] | 76.5 |
| CN1C(=O)CCC2c3ccc(C=CC(=O)O)cc3CCC21 (racemic) [Example 24, trans-dl-8-carboxyethenediyl-4-methyl-1,2,3,4,4a,5,6,10b-octahydrobenzo[f]quinolin-3-one] | 4.96 |
| CN1C(=O)CCC2c3ccc(C=CC(=O)NC(C)(C)C)cc3CCC21 (racemic) [Example 25, trans-dl-8-t-butylaminocarbonylethenediyl-4-methyl-1,2,3,4,4a,5,6,10b-octahydrobenzo[f]quinolin-3-one] | 35.9 |
| CC1(C)CC2NC(=O)CCC2c2ccc(Br)cc21 (racemic) [Example 27, trans-dl-8-bromo-6,6-dimethyl-1,2,3,4,4a,5,6,10b-octahydrobenzo[f]quinolin-3-one] | 44.7 |
| CC(C)(C)c1ccc2c(c1)CCC1NC(=O)CCC21 (racemic) [Example 30, trans-dl-8-t-butyl-1,2,3,4,4a,5,6,10b-octahydrobenzo[f]quinolin-3-one] | 38.5 |
| CN1C(=O)CCC2c3ccc(C(C)(C)C)cc3CCC21 (racemic) [Example 31, trans-dl-8-t-butyl-4-methyl-1,2,3,4,5,6,10b-octahydrobenzo[f]quinolin-3-one] | 82.1 |

Same assay, conditions: Hs68, test compound 1.00 µM; Hs68 cells; substrate testosterone 12 µM; incubated four hours

| SMILES | inhibition at 1 µM [%] |
| --- | --- |
| CN1C(=O)CC[C@@H]2c3ccc(Br)cc3CC[C@H]21 (racemic) [Example 1A, trans-dl-8-bromo-4-methyl-1,2,3,4,4a,5,6,10b-octahydrobenzo[f]quinolin-3-one] | 98 |
| CN1C(=O)CC[C@@H]2c3ccc(Br)cc3CC[C@@H]21 (racemic) [Example 1B, cis-dl-8-bromo-4-methyl-1,2,3,4,4a,5,6,10b-octahydrobenzo[f]quinolin-3-one] | 92.7 |
| CN1C(=O)CC[C@@H]2c3ccc(Cl)cc3CC[C@@H]21 (racemic) [Example 7, cis-dl-8-chloro-4-methyl-1,2,3,4,4a,5,6,10b-octahydrobenzo[f]quinolin-3-one] | 100 |

Same assay, conditions: Hs68, test compound 1.00 µM; Hs68 cells; substrate testosterone 12 µM; incubated four hours; read-out: % Inhibition

| SMILES | inhibition at 1 µM [%] |
| --- | --- |
| O=C1CC[C@@H]2c3ccc(Br)cc3CC[C@H]2N1 (racemic) [Example 2, trans-dl-8-bromo-1,2,3,4,4a,5,6,10b-octahydrobenzo[f]quinolin-3-one] | 100 |
| CN1C(=O)CC[C@@H]2c3cc(Cl)c(Cl)cc3CC[C@H]21 (racemic) [Example 5, trans-dl-8,9-dichloro-4-methyl-1,2,3,4,4a,5,6,10b-octahydrobenzo[f]quinolin-3-one] | 100 |
| Cc1ccc2c(c1)CC[C@@H]1[C@@H]2CCC(=O)N1C (racemic) [Example 8, trans-dl-4,8-dimethyl-1,2,3,4,4a,5,6,10b-octahydrobenzo[f]quinolin-3-one] | 100 |
| Cc1ccc2c(c1)CC[C@H]1[C@@H]2CCC(=O)N1C (racemic) [Example 9, cis-dl-4,8-dimethyl-1,2,3,4,4a,5,6,10b-octahydrobenzo[f]quinolin-3-one] | 100 |
| CN1C(=O)CC[C@@H]2c3ccc(F)cc3CC[C@H]21 (racemic) [Example 10, trans-dl-8-fluoro-4-methyl-1,2,3,4,4a,5,6,10b-octahydrobenzo[f]quinolin-3-one] | 100 |
| CN1C(=O)CC[C@@H]2c3ccc(F)cc3CC[C@@H]21 (racemic) [Example 11, cis-dl-8-fluoro-4-methyl-1,2,3,4,4a,5,6,10b-octahydrobenzo[f]quinolin-3-one] | 59.2 |
| O=C1CCC2c3ccc(Cl)cc3CCC2N1 (racemic) [Example 17, trans-dl-8-chloro-1,2,3,4,4a,5,6,10b-octahydrobenzo[f]quinolin-3-one] | 100 |
| COc1ccc2c(c1)CCC1NC(=O)CCC21 (racemic) [Example 18, trans-dl-8-methoxy-1,2,3,4,4a,5,6,10b-octahydrobenzo[f]quinolin-3-one] | 69.8 |
| COc1ccc2c(c1)CCC1C2CCC(=O)N1C (racemic) [Example 19, trans-dl-8-methoxy-4-methyl-1,2,3,4,4a,5,6,10b-octahydrobenzo[f]quinolin-3-one] | 93.2 |
| Cc1ccc2c(c1)CCC1NC(=O)CCC21 (racemic) [Example 20, trans-dl-8-methyl-1,2,3,4,4a,5,6,10b-octahydrobenzo[f]quinolin-3-one] | 86.6 |
| O=C1CCC2c3ccccc3CCC2N1 (racemic) [Example 21, trans-dl-1,2,3,4,4a,5,6,10b-octahydrobenzo[f]quinolin-3-one] | 100 |

Same assay, conditions: Hs68, test compound 3.16 µM; Hs68 cells; substrate testosterone 12 µM; incubated four hours

| SMILES | inhibition at 3.16 µM [%] |
| --- | --- |
| O=C1CCC2c3ccc(F)cc3CCC2N1 (racemic) [Example 15, trans-dl-8-fluoro-1,2,3,4,4a,5,6,10b-octahydrobenzo[f]quinolin-3-one] | 100 |

Same assay, conditions: Hs68, test compound 15.00 µM; Hs68 cells; substrate testosterone 12 µM; incubated four hours

| SMILES | inhibition at 15 µM [%] |
| --- | --- |
| O=C1CCC2c3ccccc3CCC2N1 (racemic) [Example 14, cis-dl-1,2,3,4,4a,5,6,10b-octa-hydrobenzo[f]quinolin-3-one] | 31.7 |

Same assay, conditions: test compound 0.316 µM; Hs68 cells; substrate testosterone 12 µM; incubated four hours

| SMILES | % Inhibition [%] |
| --- | --- |
| CC1CC2c3ccc(Cl)cc3CCC2N(C)C1=O (racemic) [Example 26A, trans-dl-8-chloro-2-(α-methyl)-4-methyl-1,2,3,4,4a,5,6,10b-octahydrobenzo[f]quinolin-3-one] | 82.56 |
| CC1CC2c3ccc(Cl)cc3CCC2N(C)C1=O (racemic) [Example 26B, trans-dl-8-chloro-2-(β-methyl)-4-methyl-1,2,3,4,4a,5,6,10b-octahydrobenzo[f]quinolin-3-one] | 76.36 |

Reference: patent EP0591583B1, “Benzo (f) quinolinones as 5-alpha-reductase inhibitors” (ELI LILLY AND COMPANY, priority 1992, dated 1994)
